Experimental data published in ChEMBL document CHEMBL5523719, “Structure-activity relationship study of new carbazole sulfonamide derivatives as anticancer agents with dual-target mechanism” (Eur J Med Chem, 2024).
Activity calls are given as the source filed them. The rule behind the calls is not given here.

Tests used:
[1] = test system: MDA-MB-231; assay: Antiproliferation activity against human MDA-MB-231 cells measured after 72 hrs incubation by MTT assay; format: functional, cell-based; settings: MDA-MB-231, 72 h
[2] = test system: MIA PaCa-2; assay: Antiproliferation activity against human MIA PaCa-2 cells measured after 72 hrs incubation by MTT assay; format: functional, cell-based; settings: MIA PaCa-2, 72 h
[3] = test system: KB; assay: Antiproliferation activity against human KB cells measured after 72 hrs incubation by MTT assay; format: functional, cell-based
[4] = test system: L02; assay: Antiproliferation activity against human L02 cells measured after 72 hrs incubation by MTT assay; format: functional, cell-based; settings: L02, 72 h
[5] = test system: NCI/ADR-RES; assay: Antiproliferation activity against human MCF7/ADR cells measured after 72 hrs incubation by MTT assay; format: functional, cell-based
[6] = target: Tubulin (Homo sapiens) (UniProt P68371+Q9H4B7+P0DPH7+P68366+Q13509+Q71U36+P04350+Q3ZCM7+P07437+P68363+Q9BQE3+Q6PEY2+Q13885+Q9BVA1+Q9BUF5); assay: In vitro inhibition of microtubule (unknown origin) assembly at 10 uM; format: protein-complex assay
[7] = target: Tubulin beta (Homo sapiens) (UniProt P68371+Q9H4B7+Q13509+P04350+Q3ZCM7+P07437+Q13885+Q9BVA1+Q9BUF5+A6NNZ2); assay: Binding affinity to beta-tubulin colchicine binding site in human MCF7 cells assessed as inhibition of EBI-beta-tubulin adduct band formation preincubated for 2 hrs followed by EBI addition measured after 2 hrs by EBI competition based Western blotting analysis; format: cell-based; settings: dose 12.5-100 nM
[8] = target: T1, DNA topoisomerase 1 (Homo sapiens) (UniProt P11387); assay: Inhibition of human DNA topoisomerase 1 assessed as relaxation of supercoiled pBR322 DNA as substrate incubated for 30 mins by gel staining based electrophoresis analysis; settings: dose 20-200 µM
T1 sequence (whole entry): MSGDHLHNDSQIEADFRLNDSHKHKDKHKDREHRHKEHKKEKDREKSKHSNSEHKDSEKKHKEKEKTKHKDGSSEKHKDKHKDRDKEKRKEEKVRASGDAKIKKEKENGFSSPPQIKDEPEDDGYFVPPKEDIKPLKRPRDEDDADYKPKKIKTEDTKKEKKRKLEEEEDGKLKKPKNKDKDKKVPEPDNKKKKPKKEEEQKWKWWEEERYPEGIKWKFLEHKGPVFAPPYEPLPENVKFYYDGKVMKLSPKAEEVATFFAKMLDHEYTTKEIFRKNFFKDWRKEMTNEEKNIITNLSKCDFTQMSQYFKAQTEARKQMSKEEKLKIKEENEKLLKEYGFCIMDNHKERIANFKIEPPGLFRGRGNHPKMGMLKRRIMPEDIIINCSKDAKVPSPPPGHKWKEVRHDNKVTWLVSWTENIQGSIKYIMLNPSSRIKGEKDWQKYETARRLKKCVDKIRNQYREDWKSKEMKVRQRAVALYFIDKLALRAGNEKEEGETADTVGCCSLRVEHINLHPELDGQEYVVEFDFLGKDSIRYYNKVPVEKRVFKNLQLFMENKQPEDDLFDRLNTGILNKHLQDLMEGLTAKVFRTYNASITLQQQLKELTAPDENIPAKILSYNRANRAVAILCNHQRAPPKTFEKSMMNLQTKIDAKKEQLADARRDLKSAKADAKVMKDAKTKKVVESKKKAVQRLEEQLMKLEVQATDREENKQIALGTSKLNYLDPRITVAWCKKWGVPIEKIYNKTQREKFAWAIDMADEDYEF

[9] = target: DNA topoisomerase 2-alpha (Homo sapiens) (UniProt P11388); assay: Inhibition of human DNA topoisomerase 2 assessed as relaxation of supercoiled pBR322 DNA as substrate at 20 uM incubated for 30 mins by gel staining based electrophoresis analysis
[10] = target: DNA topoisomerase 2-alpha (Homo sapiens) (UniProt P11388); assay: Inhibition of human DNA topoisomerase 2 assessed as relaxation of supercoiled pBR322 DNA as substrate at 200 uM incubated for 30 mins by gel staining based electrophoresis analysis
[11] = test system: MCF7; assay: Induction of cell cycle arrest in human MCF7 cells assessed as accumulation of cells at G2/M phase at 4 nM measured after 24 hrs by flow cytometry (reference value: 22.84%); format: functional
[12] = test system: MCF7; assay: Induction of cell cycle arrest in human MCF7 cells assessed as accumulation of cells at G2/M phase at 500 nM measured after 24 hrs by flow cytometry (reference value: 22.84%); format: functional
[13] = test system: MCF7; assay: Induction of cell cycle arrest in human MCF7 cells assessed as accumulation of cells at G0/G1 phase at 25 nM measured after 24 hrs by flow cytometry (reference value: 61.73%); format: functional
[14] = test system: MCF7; assay: Induction of cell cycle arrest in human MCF7 cells assessed as accumulation of cells at G0/G1 phase at 500 nM measured after 24 hrs by flow cytometry (reference value: 61.73%); format: functional
[15] = test system: MCF7; assay: Induction of cell cycle arrest in human MCF7 cells assessed as increase in cyclin B1 protein expression at […] by Western blot analysis; format: functional, cell-based; settings: dose lower 12.5 µM
[16] = test system: MCF7; assay: Induction of cell cycle arrest in human MCF7 cells assessed as increase in phosphorylation of histone H3 at […] by Western blot analysis; format: functional, cell-based; settings: dose lower 12.5 µM
[17] = test system: MCF7; assay: Induction of apoptosis in human MCF7 cells assessed as early apoptotic cells at 6.25 nM measured after 48 hrs by AnnexinV/PI double staining assays (reference value: 5.32%); format: functional
[18] = test system: MCF7; assay: Induction of apoptosis in human MCF7 cells assessed as necrotic cells at 6.25 nM measured after 48 hrs by AnnexinV/PI double staining assays (reference value: 0.89%); format: functional
[19] = test system: MCF7; assay: Induction of apoptosis in human MCF7 cells assessed as viable cells at 12.5 nM measured after 48 hrs by AnnexinV/PI double staining assays (reference value: 91.20%); format: functional; settings: read-out: Activity
[20] = test system: MCF7; assay: Induction of apoptosis in human MCF7 cells assessed as early apoptotic cells at 12.5 nM measured after 48 hrs by AnnexinV/PI double staining assays (reference value: 5.32%); format: functional
[21] = test system: MCF7; assay: Induction of apoptosis in human MCF7 cells assessed as necrotic cells at 12.5 nM measured after 48 hrs by AnnexinV/PI double staining assays (reference value: 0.89%); format: functional
[22] = test system: MCF7; assay: Induction of apoptosis in human MCF7 cells assessed as viable cells at 25 nM measured after 48 hrs by AnnexinV/PI double staining assays (reference value: 91.20%); format: functional; settings: read-out: Activity
[23] = test system: MCF7; assay: Induction of apoptosis in human MCF7 cells assessed as late apoptotic cells at 25 nM measured after 48 hrs by AnnexinV/PI double staining assays (reference value: 2.60%); format: functional
[24] = test system: MCF7; assay: Induction of apoptosis in human MCF7 cells assessed as necrotic cells at 25 nM measured after 48 hrs by AnnexinV/PI double staining assays (reference value: 0.89%); format: functional
[25] = test system: MCF7; assay: Induction of apoptosis in human MCF7 cells assessed as karyopyknosis at 5 nM measured after 24 hrs by fluorescent microscopy; format: functional, cell-based
[26] = test system: HMEC-1; assay: Angiogenic activity against human HMEC-1 cells assessed as decrease in vascular area measured after 48 hrs by Endothelial tube formation assay; format: functional, cell-based; settings: dose 1-100 nM

Sequence of DNA topoisomerase 2-alpha (Homo sapiens) (P11388 whole entry): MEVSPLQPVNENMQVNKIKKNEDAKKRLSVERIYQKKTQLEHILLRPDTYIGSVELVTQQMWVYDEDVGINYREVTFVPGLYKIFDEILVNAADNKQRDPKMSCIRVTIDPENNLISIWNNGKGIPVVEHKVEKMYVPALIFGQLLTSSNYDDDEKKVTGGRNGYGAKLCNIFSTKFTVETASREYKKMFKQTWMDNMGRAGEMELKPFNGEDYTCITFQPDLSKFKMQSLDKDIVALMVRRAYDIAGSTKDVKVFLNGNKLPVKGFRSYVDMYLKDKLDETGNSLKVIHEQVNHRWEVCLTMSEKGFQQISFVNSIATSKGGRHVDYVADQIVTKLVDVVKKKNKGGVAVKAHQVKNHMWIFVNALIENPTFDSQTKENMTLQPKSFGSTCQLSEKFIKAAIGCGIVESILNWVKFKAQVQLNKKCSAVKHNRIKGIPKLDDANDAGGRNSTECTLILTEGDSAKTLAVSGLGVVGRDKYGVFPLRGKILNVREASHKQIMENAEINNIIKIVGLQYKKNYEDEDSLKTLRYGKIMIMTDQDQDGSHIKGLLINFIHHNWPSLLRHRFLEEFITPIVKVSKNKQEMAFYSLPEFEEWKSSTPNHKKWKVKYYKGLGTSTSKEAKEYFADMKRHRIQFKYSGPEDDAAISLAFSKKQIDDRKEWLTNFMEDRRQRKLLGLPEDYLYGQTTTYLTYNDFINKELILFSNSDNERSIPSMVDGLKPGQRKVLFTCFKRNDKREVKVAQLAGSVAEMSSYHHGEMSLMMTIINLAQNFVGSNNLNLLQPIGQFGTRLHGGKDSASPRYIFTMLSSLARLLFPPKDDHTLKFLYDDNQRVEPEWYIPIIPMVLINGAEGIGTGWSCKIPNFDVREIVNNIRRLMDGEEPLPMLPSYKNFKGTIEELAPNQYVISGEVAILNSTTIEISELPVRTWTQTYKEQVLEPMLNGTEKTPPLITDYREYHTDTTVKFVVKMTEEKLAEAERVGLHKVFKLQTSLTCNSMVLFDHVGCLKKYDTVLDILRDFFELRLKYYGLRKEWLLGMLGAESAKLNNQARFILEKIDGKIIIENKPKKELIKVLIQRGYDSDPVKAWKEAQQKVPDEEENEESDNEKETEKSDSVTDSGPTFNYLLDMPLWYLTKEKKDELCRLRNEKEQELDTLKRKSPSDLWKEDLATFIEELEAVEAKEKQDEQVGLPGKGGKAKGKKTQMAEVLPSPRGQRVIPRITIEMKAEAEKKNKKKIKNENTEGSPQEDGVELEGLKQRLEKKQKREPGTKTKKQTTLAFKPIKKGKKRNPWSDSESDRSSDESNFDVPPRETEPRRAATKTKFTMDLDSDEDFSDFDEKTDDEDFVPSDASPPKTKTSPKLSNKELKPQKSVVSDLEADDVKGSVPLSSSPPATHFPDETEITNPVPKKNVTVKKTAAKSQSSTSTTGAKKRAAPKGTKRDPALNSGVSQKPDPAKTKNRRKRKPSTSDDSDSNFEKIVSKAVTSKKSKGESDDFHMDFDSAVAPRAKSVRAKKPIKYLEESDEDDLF

IC50 [1]: 31.2 nM
IC50 [2]: 13.3 nM
IC50 [3]: 9.45 nM
inhibition [6]: Active
Activity [7]: Active
inhibition [8]: Dose-Dependent Effect
inhibition [9]: inactive
inhibition [10]: inactive
SMILES: COc1cc(NS(=O)(=O)c2ccc3c(c2)c2ccc(N)cc2n3C)c(OC)cc1Cl
IC50 [4]: 18.5 nM
IC50 [5]: 1.86 nM
Activity [11]: 23.3%
Activity [12]: 53.2%
Activity [13]: 36.18%
Activity [14]: 5.54%
Activity [15]: Dose-Dependent Effect
Activity [16]: Dose-Dependent Effect
Activity [17]: 16.87%
Activity [18]: 0.1%
viability at 0.0125 µM [19]: 64.2%
Activity [20]: 26.99%
Activity [21]: 0.14%
viability at 0.025 µM [22]: 39.3%
Activity [23]: 14.03%
Activity [24]: 0.51%
Activity [25]: Active
Activity [26]: Dose-Dependent Effect
